Laboratory results as given in PubChem BioAssay (NCI).
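Cells were grown in 96-well plates and exposed to each compound for 48 hours at five concentrations; endpoints were interpolated linearly between bracketing concentrations, or set to the highest concentration if not reached. Here, GI50 denotes the concentration required for 50% inhibition of growth. TGI: total growth inhibition.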

Assays:
Assay in all cases: NCI tumour cell line growth inhibition, 48 h
DMS 273 small cell lung = test system: DMS 273 small cell lung
HOP-18 NSCLC = test system: HOP-18 NSCLC
KM20L2 colon = test system: KM20L2 colon
LXFL 529 NSCLC = test system: LXFL 529 NSCLC
M19-MEL melanoma = test system: M19-MEL melanoma
MDA-N = test system: MDA-N
RXF-631 renal = test system: RXF-631 renal
SNB-78 CNS = test system: SNB-78 CNS
XF 498 CNS = test system: XF 498 CNS

Compound	TGI (DMS 273 small cell lung)	TGI (HOP-18 NSCLC)	TGI (KM20L2 colon)	TGI (LXFL 529 NSCLC)	TGI (M19-MEL melanoma)	TGI (MDA-N)	TGI (RXF-631 renal)	TGI (SNB-78 CNS)	TGI (XF 498 CNS)	GI50 (MDA-N)
NC(N)=NS(=O)(=O)c1ccc(NCc2c3ccccc3nc3ccccc23)cc1	> 61.6 µM	> 86.8 µM	> 100 µM	44.3 µM	> 100 µM	> 100 µM	> 70.1 µM	> 66.9 µM		
Cn1c2c(c3ccccc31)C1CCCCC1C1C(=O)NC(=O)C21 (centres undefined)		> 100 µM		> 100 µM	> 100 µM		> 100 µM	> 100 µM	> 100 µM	
N#CC(C(=O)/C(=N\Nc1nc(=S)[nH]n1N)C(C#N)c1ccc(Cl)cc1)c1ccc(Cl)cc1 (centres undefined)	> 100 µM	> 100 µM	> 100 µM	> 100 µM	> 100 µM			> 100 µM	> 100 µM	
O=C(CC1(O)C(=O)Nc2ccccc21)c1ccccc1Cl (centres undefined)	> 100 µM		> 100 µM	> 100 µM	> 100 µM			> 100 µM	> 100 µM	
CC/C=C1\N=C(c2ccc(Cl)cc2)OC1=O	> 100 µM		> 100 µM	> 100 µM	> 100 µM			> 100 µM	> 100 µM	
Cc1ccc(-c2nc(SCC(=O)O)n[nH]2)cc1	> 100 µM	> 100 µM	> 100 µM	> 100 µM	> 100 µM			> 100 µM	> 100 µM	
O=S(O)CCCCCSSCCCCSSCCCCCS(=O)O	> 100 µM	> 100 µM	> 100 µM	> 100 µM	> 100 µM		> 100 µM	> 100 µM	> 100 µM	
NS(=O)(=O)c1cc2c(cc1Cl)NC(Cc1ccccc1)NS2(=O)=O (centres undefined)						> 100 µM				
O=C(CO)CC(=O)C(=O)Nc1nc([N+](=O)[O-])cs1	> 100 µM	> 100 µM	> 100 µM	> 100 µM	> 100 µM		> 100 µM	> 100 µM		
Cc1ccc(NC(=O)c2cccc([N+](=O)[O-])c2O)c([N+](=O)[O-])c1	26.2 µM	91.1 µM	70.4 µM	27.9 µM	27.6 µM		26.9 µM	> 100 µM	36.2 µM	
N/N=C1\C(=O)N(C2CCCCC2)C(=O)C1C(=O)NC1CCCCC1 (centres undefined)		> 100 µM	39.9 µM	> 100 µM	> 100 µM		> 100 µM	> 100 µM	> 100 µM	
COC1=CC(O)(CC(N)=O)c2ccccc2C1=O (centres undefined)	> 100 µM	> 100 µM	> 100 µM	> 100 µM	> 100 µM		> 100 µM	> 100 µM	> 100 µM	
O=C1C(Br)=CC2(C=C1Br)CCN=c1c2c(O)c2nc3ccccc3c3ccnc1c23						2.22 µM				0.951 µM
COc1ccc2oc3c4c2c1CCC4CCC3=O (centres undefined)	> 100 µM			> 100 µM	> 100 µM		> 100 µM	> 100 µM	> 100 µM	
Cc1ccc(NC(=O)NC(=O)c2ccc([N+](=O)[O-])cc2[N+](=O)[O-])cc1Oc1ncc(Cl)cn1	1.08 µM	25.3 µM	0.515 µM	11.1 µM	21.7 µM			26.5 µM	16.9 µM	
CC1=CC(=O)CCC2(C)C1CC[C@@H]2OC=O (some centres undefined)	> 100 µM	> 100 µM	> 100 µM	> 100 µM	> 100 µM		> 100 µM	> 100 µM	> 100 µM	
O=C(O)C1C(C(=O)Nc2ccc3c(c2)Cc2ccccc2-3)C2(Cl)C(Cl)=C(Cl)C1(Cl)C2(Cl)Cl (centres undefined)						> 100 µM				
C=C/C=C(\NC(=O)C(Cl)(Cl)Cl)[Si](C)(C)C	> 100 µM	> 100 µM	> 100 µM	> 100 µM	> 100 µM			> 100 µM	> 100 µM	
COc1ccc(/C(Cl)=C(\C=O)c2ccc([N+](=O)[O-])cc2)cc1OC	32 µM	23.7 µM	25.5 µM	13.7 µM	24.3 µM	14.5 µM	26.9 µM	56.5 µM	9.59 µM	
